Measured values taken from patent US20060216299A1, “Cell cycle targets and peptides” (Rigel Pharmaceuticals, Inc., priority 2002, published 2006).

Key:
Format in all cases: cell-based, human
[1] = system: A549.tTA cells expressing #38 and #41; assay: Role of farnesylation in cellular localization of GFP fused #38; details: 2 μM L-744,832, 48 hours
Description: #38 has a CAAX box motif in the C-terminus. A 15-carbon farnesyl or 20-carbon geranylgeranyl isoprenoid is linked to the Cys in a CAAX box motif by Farnesyl transferase or Geranylgeranyl transferase, respectively (Fu, H. W. et al., Recent Prog Horm Res, 54:315-342; discussion 342-313 (1999)). The role of farnesylation in cellular localization of #38 was examined. A549.tTA cells expressing #38 and #41 were treated with a peptidomimetic farnesyltransferase specific inhibitor, L-744,832 for 48 hours.

A549 cells = assay: High content imaging of anti-proliferative synthetic K7 peptides (nuclei and apoptotic nuclei, 24 hours)
Description: A549 cells (American Type Culture Collection (ATCC), Manassas, Va., U.S.A.) were plated at 2000 cells/well in 96 well plates with F12K media supplemented with 10% fetal bovine serum and 1% penicillin/streptomycin and allowed to grow for 24 hours. Peptide dissolved in media was added to the cells to a final concentration ranging from 0.8 to 25 uM in triplicate. Following incubation with peptide for 24 hours, cells were fixed with 3.7% formaldehyde for 30 minutes, rinsed in PBS and stained with DAPI (Molecular Probes) to label nuclear DNA. Digital images were taken of the labeled nuclei in each well using a Zeiss Axiovert microscope, UV filter set and Photometrics camera.

[2] = system: A549 cells expressing GFP fusion #38 and #41; assay: Displacement of cellular localization of GFP fusion peptides by synthetic analogues; details: 100 μM peptide, 5 hours
Description: GFP fused #38, #40, and #41 were concentrated at the plasma membrane and granular cytoplasmic structures. […] We examined whether synthetic analogues can displace cellular localization of GFP fusion peptides. A549 cells expressing GFP fusion #38 and #41 were incubated with 100 μM of K7—#41, K7—#41M and K7—#40 for 5 hours and GFP localization was analyzed using a fluorescent microscope.

[3] = system: A549 lung carcinoma cells; assay: Fluorescence microscopy examination of A549 cells exposed to lys7-peptides (nuclei, apoptosis, cell cycle stage, 48 hours)
Description: A549 tumor cells (American Type Culture Collection, Fairfax Va.) were plated at 2000 cells per well in 96 well plates with F12k media supplemented with 10% fetal bovine serum and 1% penicillin/streptomycin and allowed to grow for 24 hours. Peptide dissolved in media was added to the cells to a final concentration of 0.8 to 100 uM in triplicate. Following incubation with peptide for 24 or 48 hours, cells were fixed with 3.7% formaldehyde for 30 minutes, rinsed in PBS and stained with DAPI (Molecular Probes, OR) to label nuclear DNA. Digital images of the labeled nuclei in each well were taken using a Zeiss Axiovert microscope, UV filter set and Photometrics camera.

| Compound | cellular localization of #38 in the presence of inhibitor [1] | apoptotic nuclei (A549 cells) | change of cellular localization of GFP fusion #41 [2] | number of observed cell nuclei remaining ([3]; A549 cells, 48 hours exposure, increasing doses) | cell cycle stage distribution ([3]; asynchronously growing A549 cells, 48 hours, remaining cells that have not undergone apoptosis) |
| --- | --- | --- | --- | --- | --- |
| CC[C@H](C)[C@@H](CO[C@@H](Cc1ccccc1)C(=O)N[C@@H](CCS(C)(=O)=O)C(=O)OC(C)C)NC[C@@H](N)CS [L-744,832] | completely abolished | – | – | – | – |
| synthetic #40 fused with seven Lys (K7) via a linker (GGEEAAKA) at the N-terminus [K7—#40] | – | increase in apoptotic nuclei | these changes were not seen | ca. 10 % of original values | depletion of G1 cells, a complete loss of S and G2 cells at 100 mM levels, and an increase in M phase cells |
